Reference: ChEMBL document CHEMBL4725268, “Anticonvulsant and analgesic in neuropathic pain activity in a group of new aminoalkanol derivatives” (Bioorg Med Chem Lett, 2020)
Active and inactive are the calls of the source.

Experiments:
in vitro [1] = conditions: mouse, microsomes
Description: Metabolic stability in mouse microsome assessed as intrinsic clearance

[2] = Genotoxicity in Salmonella typhimurium TA100 assessed as mutagenic index at 75 ug by AMES test; type: toxicity, Salmonella enterica subsp. enterica serovar Typhimurium; conditions: in vivo; dose 75 µg
Mus musculus [3] = test: Anticonvulsant activity in ip dosed mouse assessed as protection against current-induced seizure by maximal electroshock seizure test; type: functional
[4] = Genotoxicity in Salmonella typhimurium TA98 assessed as mutagenic index at 10 ug by AMES test; type: toxicity, Salmonella enterica subsp. enterica serovar Typhimurium; conditions: in vivo; dose 10 µg
[5] = target: T1, 5-hydroxytryptamine receptor 1A (Homo sapiens) (UniProt P08908); test: Binding affinity to 5-HT1A (unknown origin) at 10^-5 M; conditions: dose 1.0 10^-5M
T1 sequence (whole entry): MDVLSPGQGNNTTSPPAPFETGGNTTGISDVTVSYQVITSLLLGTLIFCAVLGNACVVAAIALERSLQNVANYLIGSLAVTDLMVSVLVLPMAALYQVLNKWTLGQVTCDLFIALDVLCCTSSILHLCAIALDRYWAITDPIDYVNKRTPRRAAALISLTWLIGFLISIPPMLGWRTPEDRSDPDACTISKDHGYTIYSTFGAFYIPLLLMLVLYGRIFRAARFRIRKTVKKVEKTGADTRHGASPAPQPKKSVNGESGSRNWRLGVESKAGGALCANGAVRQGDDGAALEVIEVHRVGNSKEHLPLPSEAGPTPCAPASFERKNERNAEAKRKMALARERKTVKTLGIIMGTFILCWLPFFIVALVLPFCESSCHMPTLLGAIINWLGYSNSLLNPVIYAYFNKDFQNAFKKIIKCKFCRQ

[6] = Genotoxicity in Salmonella typhimurium TA100 assessed as number of revertant at 200 ug by AMES test (reference value: 64.3 to 130.7); type: toxicity, Salmonella enterica subsp. enterica serovar Typhimurium; conditions: in vivo; dose 200 µg
[7] = Protection index, ratio of TD50 for toxicity in ip dosed mouse to ED50 for anticonvulsant activity in ip dosed mouse; type: organism-based; conditions: in vivo, read-out: PI
[8] = Genotoxicity in Salmonella typhimurium TA100 assessed as mutagenic index at 500 ug by AMES test; type: toxicity, Salmonella enterica subsp. enterica serovar Typhimurium; conditions: in vivo; dose 500 µg
[9] = Toxicity in ip dosed mouse assessed as motor impairment by rotarod test; type: organism-based; conditions: in vivo
in vitro [10] = conditions: mouse, microsomes; remark: listed apart in the source
Description: Metabolic stability in mouse microsome assessed as half life

[11] = Genotoxicity in Salmonella typhimurium TA100 assessed as mutagenic index at 200 ug by AMES test; type: toxicity, Salmonella enterica subsp. enterica serovar Typhimurium; conditions: in vivo; dose 200 µg
[12] = Genotoxicity in Salmonella typhimurium TA100 assessed as number of revertant at 500 ug by AMES test (reference value: 64.3 to 130.7); type: toxicity, Salmonella enterica subsp. enterica serovar Typhimurium; conditions: in vivo; dose 500 µg
[13] = Genotoxicity in Salmonella typhimurium TA98 assessed as number of revertant at 10 ug by AMES test (reference value: 8 to 8.3); type: toxicity, Salmonella enterica subsp. enterica serovar Typhimurium; conditions: in vivo; dose 10 µg
[14] = Drug metabolism in mouse microsome assessed as formation of monohydroxylated metabolite; type: ADME; conditions: microsomes
[15] = Genotoxicity in Salmonella typhimurium TA98 assessed as mutagenic index at 500 ug by AMES test; type: toxicity, Salmonella enterica subsp. enterica serovar Typhimurium; conditions: in vivo; dose 500 µg
[16] = Genotoxicity in Salmonella typhimurium TA98 assessed as mutagenic index at 200 ug by AMES test; type: toxicity, Salmonella enterica subsp. enterica serovar Typhimurium; conditions: in vivo; dose 200 µg
[17] = Genotoxicity in Salmonella typhimurium TA100 assessed as mutagenic index at 10 ug by AMES test; type: toxicity, Salmonella enterica subsp. enterica serovar Typhimurium; conditions: in vivo; dose 10 µg
[18] = Genotoxicity in Salmonella typhimurium TA100 assessed as number of revertant at 10 ug by AMES test (reference value: 64.3 to 130.7); type: toxicity, Salmonella enterica subsp. enterica serovar Typhimurium; conditions: in vivo; dose 10 µg
[19] = Genotoxicity in Salmonella typhimurium TA98 assessed as number of revertant at 200 ug by AMES test (reference value: 8 to 8.3); type: toxicity, Salmonella enterica subsp. enterica serovar Typhimurium; conditions: in vivo; dose 200 µg
[20] = Genotoxicity in Salmonella typhimurium TA98 assessed as number of revertant at 750 ug by AMES test (reference value: 8 to 8.3); type: toxicity, Salmonella enterica subsp. enterica serovar Typhimurium; conditions: in vivo; dose 750 µg
[21] = Genotoxicity in Salmonella typhimurium TA98 assessed as mutagenic index at 750 ug by AMES test; type: toxicity, Salmonella enterica subsp. enterica serovar Typhimurium; conditions: in vivo; dose 750 µg
[22] = Genotoxicity in Salmonella typhimurium TA98 assessed as mutagenic index at 75 ug by AMES test; type: toxicity, Salmonella enterica subsp. enterica serovar Typhimurium; conditions: in vivo; dose 75 µg
[23] = Genotoxicity in Salmonella typhimurium TA98 assessed as number of revertant at 500 ug by AMES test (reference value: 8 to 8.3); type: toxicity, Salmonella enterica subsp. enterica serovar Typhimurium; conditions: in vivo; dose 500 µg
[24] = Genotoxicity in Salmonella typhimurium TA100 assessed as number of revertant at 75 ug by AMES test (reference value: 64.3 to 130.7); type: toxicity, Salmonella enterica subsp. enterica serovar Typhimurium; conditions: in vivo; dose 75 µg
[25] = Genotoxicity in Salmonella typhimurium TA98 assessed as number of revertant at 75 ug by AMES test (reference value: 8 to 8.3); type: toxicity, Salmonella enterica subsp. enterica serovar Typhimurium; conditions: in vivo; dose 75 µg
[26] = target: T2, 5-hydroxytryptamine receptor 1A (Homo sapiens, UniProt P08908); test: Binding affinity to 5-HT1A (unknown origin)
T2 sequence (P08908 whole entry): T1 sequence (whole entry)

[27] = Toxicity in mouse assessed as lethality at 50 mg/kg, ip; type: organism-based; conditions: in vivo
Mus musculus [28] = test: Antiallodynic activity in mouse model of OXA-induced peripheral neuropathy assessed as mean latency time to nocifensive response at 18 mg/kg, ip administered after 3 hrs of OXA stimulation and measured after 1 hr by cold plate method (reference value: 59.76 +/- 0.16 sec); type: functional
[29] = Genotoxicity in Salmonella typhimurium TA100 assessed as mutagenic index at 750 ug by AMES test; type: toxicity, Salmonella enterica subsp. enterica serovar Typhimurium; conditions: in vivo; dose 750 µg
[30] = Antioxidant activity assessed as DPPH radical scavenging activity at 125 to 1000 uM by microplate method; type: functional; conditions: dose microM 125-1000
Mus musculus [31] = test: Antiallodynic activity in mouse model of OXA-induced peripheral neuropathy assessed as mean paw withdrawal threshold at 18 mg/kg, ip administered after 7 days of OXA stimulation and measured after 1 hr by Von-frey method (reference value: 3.192 +/- 0.181 g); type: functional
Mus musculus [32] = test: Antiallodynic activity in mouse model of OXA-induced peripheral neuropathy assessed as mean latency time to nocifensive response at 18 mg/kg, ip administered after 7 days of OXA stimulation and measured after 1 hr by cold plate method (reference value: 57.64 +/- 1.267 sec); type: functional
Mus musculus [33] = test: Antiallodynic activity in mouse model of OXA-induced peripheral neuropathy assessed as mean paw withdrawal threshold at 18 mg/kg, ip administered after 3 hrs of OXA stimulation and measured after 1 hr by Von-frey method (reference value: 3.144 +/- 0.169 g); type: functional
[34] = Genotoxicity in Salmonella typhimurium TA100 assessed as number of revertant at 750 ug by AMES test (reference value: 64.3 to 130.7); type: toxicity, Salmonella enterica subsp. enterica serovar Typhimurium; conditions: in vivo; dose 750 µg

SMILES | microsomal CLint (in vitro [1]) | Activity_index [2] | ED50 (Mus musculus [3]) | Activity_index [4] | Activity [6] | selectivity ratio [7] | TD50 [9] | half-life (in vitro [10]) | Activity_index [11] | Activity [13] | Drug metabolism [14] | Activity_index [15] | Activity_index [16] | Activity_index [17] | Activity [18] | Activity [19] | Activity_index [22] | Activity [23] | Activity [24] | Activity [25] | further results
Cc1cccc(C)c1OCCOCCNC1CCC(O)CC1.Cl (centres undefined) | 19.8 µL/min/mg | 4.3 | 33 mg/kg | 1 | 55 | 3.99 | 132 mg/kg | 1.46 h | 0.8 | 8 | Metabolite_Detected | 0.8 | 1.2 | 3.1 | 226.7 | 9.3 | 1 | 6.7 | 312.3 | 8.3 | Activity [5]: inactive; Activity_index [8]: 3.8; Activity [12]: 274.3; Activity [20]: 3; Activity_index [21]: 0.4
Cc1cc(C)c(C)c(OCCOCCN[C@H]2CCCC[C@@H]2O)c1.Cl (racemic) | 93 µL/min/mg | 1.1 | 18.2 mg/kg | 0.9 | 70.5 | 2.91 | 54.2 mg/kg | 0.62 h | 1 | 7 | Metabolite_Detected | 1.1 | 1.4 | 1.2 | 86 | 11 | 1 | 9 | 80.7 | 8 | Ki [26]: 1200 nM; Activity [27]: Non-Toxic; Time (Mus musculus [28]): 20.92 s; Activity_index [29]: 0.4; Activity [30]: inactive; Activity (Mus musculus [31]): 1.907 g; Time (Mus musculus [32]): 8.86 s; Activity (Mus musculus [33]): 2.09 g; Activity [34]: 56
